The target of test [1] is T1, PI3Kα (wild-type) (Homo sapiens, UniProt P42336).
T1 construct: made in house; host or cells: SF9 insect cells
As to the kind of experiment: PI3 Kinase TR-FRET assay, PI3Kα (wild-type). It is filed as biochemical. The following applies: wild-type P110/P85α, 10 μM ATP. The procedure:
The ability of compounds of the invention to inhibit PI3K activity was determined in a homogeneous TR-FRET assay using a PI3K assay kit (Millipore, USA; cat #33-016) according to manufacturer's instructions. PI3-Kinases (isoforms α, β, γ and δ) catalyze the phosphorylation of phosphatidylinositol, PIP2 to PIP3 in the presence of ATP and Mg^2+. The PIP3 product is detected by displacement of biotin-PIP3 from an energy transfer complex consisting of Europium labeled anti-GST monoclonal antibody, a GST-tagged PH domain, biotinylated PIP3 and Streptavidin-APC. Excitation of Europium in the complex results in an energy transfer to the APC and a fluorescence emission at 665 nm. The PIP3 product displaces biotin-PIP3 from the complex resulting in a loss of energy transfer and thus a decrease in signal.
To test for the ability of compounds to inhibit the activity of PI3Kα (wild-type), exemplary compounds of formula (I) were dissolved in DMSO and directly distributed into 384-well plates at a volume of 0.5 μL. 14.5 μL of P110/P85α/PIP2 mixture in buffer (obtained from the Millipore kit) containing MgCl2 (40 mM) and DTT (5 mM) was added to compound wells and incubated for 60 minutes at room temperature. P110/P85α was expressed in SF9 insect cells and purified nickel column extraction. Five ng of wild-type P110/P85α was used in the assay. The kinase reaction was started by the addition of ATP. The assay concentrations of both PIP2 and ATP were 10 μM. The reaction mixture was incubated for 30 minutes at room temperature and was terminated by the addition of stop mix and detection mix. Fluorescence was measured at 615 and 665 nm upon excitation at 340 nm in a Victor™ V5 fluorometer (Perkin Elmer, USA). The fluorescence emission ratio at 665 to 615 nm, proportional to the kinase activity, was plotted against the compound concentration to generate dose-response curves and IC50 values were determined using GraphPad Prism® 5 software.
A general note: In TR-FRET formats the signal depends on donor and acceptor labels being close together.

The target in test [2] is T2, mTOR kinase (Homo sapiens, UniProt P42345).
T2 construct: purchased Millipore, USA
T2 sequence (P42345 1362-2549 limits assumed): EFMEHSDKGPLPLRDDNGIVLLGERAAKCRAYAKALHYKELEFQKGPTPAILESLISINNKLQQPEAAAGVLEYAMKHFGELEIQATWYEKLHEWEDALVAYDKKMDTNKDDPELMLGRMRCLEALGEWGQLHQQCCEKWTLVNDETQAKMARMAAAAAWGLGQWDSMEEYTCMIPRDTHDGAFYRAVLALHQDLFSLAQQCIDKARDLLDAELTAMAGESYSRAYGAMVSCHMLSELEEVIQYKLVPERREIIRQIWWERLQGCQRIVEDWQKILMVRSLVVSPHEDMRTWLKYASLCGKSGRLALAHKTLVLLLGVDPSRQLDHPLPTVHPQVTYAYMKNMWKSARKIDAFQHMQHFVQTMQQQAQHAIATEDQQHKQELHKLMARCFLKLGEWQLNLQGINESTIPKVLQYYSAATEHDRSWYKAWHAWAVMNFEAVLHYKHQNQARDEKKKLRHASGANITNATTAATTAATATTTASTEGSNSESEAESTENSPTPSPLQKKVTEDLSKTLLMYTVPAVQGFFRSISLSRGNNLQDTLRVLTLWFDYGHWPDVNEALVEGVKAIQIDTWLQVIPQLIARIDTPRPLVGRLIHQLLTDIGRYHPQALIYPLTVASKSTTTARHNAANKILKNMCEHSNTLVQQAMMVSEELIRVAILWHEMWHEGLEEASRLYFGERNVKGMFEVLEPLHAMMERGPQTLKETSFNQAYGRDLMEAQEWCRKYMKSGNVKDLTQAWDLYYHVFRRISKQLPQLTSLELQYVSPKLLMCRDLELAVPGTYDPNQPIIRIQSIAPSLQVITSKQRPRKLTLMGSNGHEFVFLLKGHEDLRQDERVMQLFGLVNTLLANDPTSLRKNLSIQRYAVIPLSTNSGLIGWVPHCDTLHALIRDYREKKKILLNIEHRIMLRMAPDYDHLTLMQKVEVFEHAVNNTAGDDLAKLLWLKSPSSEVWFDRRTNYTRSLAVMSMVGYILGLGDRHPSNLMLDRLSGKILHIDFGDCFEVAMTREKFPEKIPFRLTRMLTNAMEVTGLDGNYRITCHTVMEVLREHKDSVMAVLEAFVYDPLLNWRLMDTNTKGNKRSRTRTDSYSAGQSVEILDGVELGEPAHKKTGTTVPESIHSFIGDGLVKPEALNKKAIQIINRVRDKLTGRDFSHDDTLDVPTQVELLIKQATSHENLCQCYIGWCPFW
As to the kind of experiment: mTOR kinase TR-FRET assay. Conditions: 20 μM ATP. Format: biochemical. As to the method: Compound inhibition for mTOR kinase was determined in a homogeneous TR-FRET assay using the Lance® ULight-p70 S6K (Thr 389) peptide (obtained from Perkin-Elmer). The ULight™-labeled synthetic peptide contains the amino acid residues surrounding Thr389 of human p70 S6K. The ULight-p70 S6K peptide is phosphorylated at Thr389 by mTOR. Phosphorylation motif: LGFTYVAP as substrate.
The compound dilution was carried out in 100% DMSO followed by a buffer dilution. The reaction buffer was HEPES (50 mM pH 7.5), EGTA (1 mM), MnCl2 (3 mM). Test compounds at various concentrations were pre-incubated with mTOR (Millipore, USA; 5 ng) for 60 min, and then the Lance® ULight-p70 S6K (Thr 389) peptide (50 nM) was added along with ATP (20 μM). After incubating the reaction mixture for 60 minutes at room temperature, the kinase reaction was terminated by the addition of EDTA (10 mM) followed by the addition of detection mix, i.e., 1 nM Eu-labeled anti-phospho-substrate antibody (Perkin Elmer, USA). The fluorescence emission at […] was measured upon excitation at 340 nm. IC50 values were subsequently determined using a sigmoidal dose-response curve (variable slope) in GraphPad Prism® 5 software.
Compounds of formula (I) caused inhibition of mTOR kinase activity as determined by this assay.

A value given as a limit tells only on which side of the number the result lay.

T1 sequence (P42336 whole entry, species assumed): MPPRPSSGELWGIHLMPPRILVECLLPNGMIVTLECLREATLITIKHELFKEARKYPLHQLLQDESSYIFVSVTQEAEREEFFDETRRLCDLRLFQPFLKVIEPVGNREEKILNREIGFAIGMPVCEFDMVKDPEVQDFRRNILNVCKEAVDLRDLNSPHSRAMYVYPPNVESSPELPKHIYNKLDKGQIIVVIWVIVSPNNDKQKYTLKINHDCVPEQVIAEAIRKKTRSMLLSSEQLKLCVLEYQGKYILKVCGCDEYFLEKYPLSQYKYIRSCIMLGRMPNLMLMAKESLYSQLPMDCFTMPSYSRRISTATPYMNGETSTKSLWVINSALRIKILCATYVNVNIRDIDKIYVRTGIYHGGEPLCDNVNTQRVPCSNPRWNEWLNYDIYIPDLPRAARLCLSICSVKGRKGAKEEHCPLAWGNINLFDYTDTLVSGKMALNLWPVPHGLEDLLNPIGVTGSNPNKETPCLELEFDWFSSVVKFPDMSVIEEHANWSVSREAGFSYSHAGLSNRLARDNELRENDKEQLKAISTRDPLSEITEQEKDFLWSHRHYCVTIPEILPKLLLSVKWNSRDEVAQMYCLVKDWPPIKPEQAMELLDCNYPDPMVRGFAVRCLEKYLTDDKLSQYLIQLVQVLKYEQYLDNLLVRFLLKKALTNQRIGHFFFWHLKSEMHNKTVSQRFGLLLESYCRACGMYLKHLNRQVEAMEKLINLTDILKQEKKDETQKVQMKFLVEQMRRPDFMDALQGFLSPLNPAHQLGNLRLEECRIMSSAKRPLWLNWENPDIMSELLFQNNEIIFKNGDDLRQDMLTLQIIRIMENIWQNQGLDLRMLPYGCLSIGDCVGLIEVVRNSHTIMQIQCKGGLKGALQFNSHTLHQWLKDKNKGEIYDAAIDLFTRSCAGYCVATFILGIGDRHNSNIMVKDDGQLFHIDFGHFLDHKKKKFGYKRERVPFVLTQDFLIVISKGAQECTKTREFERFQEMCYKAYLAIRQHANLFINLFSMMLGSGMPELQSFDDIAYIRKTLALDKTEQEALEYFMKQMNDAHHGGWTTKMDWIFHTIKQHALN
T1 sequence (P27986 whole entry partner, species assumed): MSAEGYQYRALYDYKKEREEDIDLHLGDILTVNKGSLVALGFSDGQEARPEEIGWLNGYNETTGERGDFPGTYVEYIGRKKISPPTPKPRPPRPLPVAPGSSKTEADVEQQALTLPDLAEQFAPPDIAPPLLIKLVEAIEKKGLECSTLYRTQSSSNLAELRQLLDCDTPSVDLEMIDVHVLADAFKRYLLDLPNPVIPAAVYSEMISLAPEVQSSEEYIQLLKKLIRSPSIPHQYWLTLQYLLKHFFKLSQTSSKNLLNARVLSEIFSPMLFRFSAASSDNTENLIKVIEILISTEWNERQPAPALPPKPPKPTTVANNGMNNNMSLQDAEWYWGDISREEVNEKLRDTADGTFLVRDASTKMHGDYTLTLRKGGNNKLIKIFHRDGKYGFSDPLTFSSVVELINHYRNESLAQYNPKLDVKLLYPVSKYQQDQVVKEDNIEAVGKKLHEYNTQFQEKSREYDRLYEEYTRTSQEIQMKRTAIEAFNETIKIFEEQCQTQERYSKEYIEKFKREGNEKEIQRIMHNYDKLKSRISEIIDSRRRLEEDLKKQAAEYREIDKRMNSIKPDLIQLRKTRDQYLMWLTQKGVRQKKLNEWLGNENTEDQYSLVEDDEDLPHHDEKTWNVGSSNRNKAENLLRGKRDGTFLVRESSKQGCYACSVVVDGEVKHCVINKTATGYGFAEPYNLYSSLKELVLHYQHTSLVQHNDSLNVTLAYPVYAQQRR

The IC50 is the concentration needed to halve the response being measured. Low values mean greater potency in that assay, high ones weaker potency in that assay. For `Nc1ncc(-c2nc(N3CCOCC3)c3ncc(-c4cccc(NC(=O)C5CCOCC5)c4)cc3n2)cn1` [Example 63, N-(3-(2-(2-amino-pyrimidin-5-yl)-4-morpholinopyrido[3,2-d]pyrimidin-7-yl)-phenyl)tetrahydro-2H-pyran-4-carboxamide], the IC50 in test [1] and in test [2] was less than 50 nM each time.

As to `CC(=O)N1CCN(Cc2ccc3c(N4CCOCC4)nc(-c4cnc(N)nc4)nc3c2)CC1` [Example 92, 1-(4-((2-(2-amino-pyrimidin-5-yl)-4-morpholinoquinazolin-7-yl)methyl)piperazin-1-yl)ethanone], the IC50 in test [1] and in test [2] was 201 to 10000 nM in each case.

As for `CC(=O)N(C)c1cccc(-c2cnc3c(N4CCOCC4)nc(-c4cnc(N)nc4)nc3c2)c1` [Example 27, N-(3-(2-(2-amino-pyrimidin-5-yl)-4-morpholinopyrido[3,2-d]-pyrimidin-7-yl)phenyl)-N-methylacetamide], the IC50 in test [1] and in test [2] was 50 to 200 nM in each case.

The molecule `CC(C)(C#N)C(=O)N1CCN(c2cccc(-c3cnc4c(N5CCOCC5)nc(-c5cnc(N)nc5)nc4c3)c2)CC1` [Example 107, 3-(4-(3-(2-(2-amino-pyrimidin-5-yl)-4-morpholinopyrido[3,2-d]-pyrimidin-7-yl)-phenyl)piperazin-1-yl)-2,2-dimethyl-3-oxopropanenitrile] showed an IC50 in test [1] of less than 50 nM.

For the molecule `Nc1ncc(-c2nc(N3CCOCC3)c3ncc(-c4cccc(NC(=O)c5csnn5)c4)cc3n2)cn1` [Example 69, N-(3-(2-(2-amino-pyrimidin-5-yl)-4-morpholinopyrido[3,2-d]pyrimidin-7-yl)phenyl)-1,2,3-thiadiazole-4-carboxamide], the IC50 in test [1] is less than 50 nM.

`Cc1ccc(C(=O)Nc2ccc(-c3cnc4c(N5CCOCC5)nc(-c5cnc(N)nc5)nc4c3)cc2)o1` [Example 73, N-(4-(2-(2-amino-pyrimidin-5-yl)-4-morpholinopyrido[3,2-d]pyrimidin-7-yl)phenyl)-5-methylfuran-2-carboxamide] came in with an IC50 in test [1] of less than 50 nM.

The molecule `Nc1ncc(-c2nc(N3CCOCC3)c3ncc(-c4ccc(NC(=O)c5ccco5)cc4)cc3n2)cn1` [Example 79, N-(4-(2-(2-amino-pyrimidin-5-yl)-4-morpholinopyrido[3,2-d]pyrimidin-7-yl)-phenyl)furan-2-carboxamide] showed an IC50 in test [1] of less than 50 nM.

As for `Nc1ncc(-c2nc(N3CCOCC3)c3ncc(-c4cccc(NC(=O)c5ccc(F)cc5)c4)cc3n2)cn1` [Example 74, N-(3-(2-(2-amino-pyrimidin-5-yl)-4-morpholinopyrido[3,2-d]pyrimidin-7-yl)phenyl)-4-fluorobenzamide], in test [1], the IC50 is less than 50 nM.

In test [1], `Cc1ccc(C(=O)Nc2ccc(F)c(-c3cnc4c(N5CCOCC5)nc(-c5cnc(N)nc5)nc4c3)c2)o1` [Example 72, N-(3-(2-(2-amino-pyrimidin-5-yl)-4-morpholinopyrido[3,2-d]pyrimidin-7-yl)-4-fluorophenyl)-5-methylfuran-2-carboxamide] came in with an IC50 of less than 50 nM.

In turn, `Nc1ncc(-c2nc(N3CCOCC3)c3ncc(-c4ccc(NC(=O)C5CCC5)cc4)cc3n2)cn1` [Example 78, N-(4-(2-(2-amino-pyrimidin-5-yl)-4-morpholinopyrido[3,2-d]pyrimidin-7-yl)-phenyl)cyclobutane-carboxamide] had an IC50 in test [1] of less than 50 nM.

Take `Nc1ncc(-c2nc(N3CCOCC3)c3ccc(-c4ccsc4)cc3n2)cn1` [Example 17, 5-(4-morpholino-7-(thiophen-3-yl)-quinazolin-2-yl)-pyrimidin-2-amine]: the IC50 in test [2] was in the range of 50 to 200 nM.

In the case of `CS(=O)(=O)N1CCN(C(=O)c2cccc(-c3cnc4c(N5CCOCC5)nc(-c5cnc(N)nc5)nc4c3)c2)CC1` [Example 36, (3-(2-(2-aminopyrimidin-5-yl)-4-morpholino-pyrido[3,2-d]pyrimidin-7-yl)phenyl)(4-(methyl-sulfonyl)piperazin-1-yl)-methanone], the IC50 in test [1] was less than 50 nM.

Values taken from patent US9145411B2, “Substituted amino-pyrimidine derivatives” (Asana Biosciences, LLC, priority 2012, dated 2015).
